Measurements from US20190040106A1, “USE OF HUMAN DERIVED IMMUNOSUPPRESSIVE PROTEINS AND PEPTIDES AS MEDICAMENTS” (AIMVION A/S, priority 2015, published 2019).

Key:
[1] = tested on: THP-1 or HT-1080 cells; experiment: CellTiter-Blue Cell Viability Assay, toxicity profile of peptides; conditions: about 20 h exposure
From the text: Here, we examined the cytotoxicity effect of peptides SG#1 to SG#17 (ID1031 to ID1047) on two human cell lines THP-1 or HT-1080 cells.
The CellTiter-Blue® Cell Viability Assay provides a homogenous, fluorometric method for estimating the number of viable cells present in multiwall plates. It uses the indicator dye resazurin to measure the metabolic capacity of cells—an indicator of cell viability. Viable cells retain the ability to reduce resazurin into resorufin, which is highly fluorescent.
The CellTiter-Blue® Reagent is a buffered solution containing highly purified resazurin. Resazurin is dark blue in color and has little intrinsic fluorescence. However, when it is reduced to resorufin, it becomes pink and highly fluorescent (579EX/584EM).
• 1. Set up 96-well assay plates containing cells in culture medium. For HT-1080, plate 1.6×10^4 cells per well on the Day 1 of the experiment. Cells are plated in 100 μl complete culture medium (DMEM) per well. • 2. On day 2, gently remove medium and add 50 μl of complete DMEM medium, add peptides and vehicle controls to appropriate wells so the final volume is 100 μl in each well. Supplement with complete DMEM where necessary. • 3. Culture cells for the desired test exposure period, about 20 h. • 4. On day 3, remove assay plates from 37° C. incubator and add 20 μl/well of CellTiter-Blue® Reagent. • 5. Shake for 10 seconds. • 6. Incubate using standard cell culture conditions for 4 hours. • 7. Shake plate for 10 seconds and record fluorescence at 560/590 nm
Toxicity profile for peptides SG#1 to SG#17 (ID1031 to ID1047). All peptides were tested at the dosage increment (10 nm, 30 nM, 100 nM, 1 μM, 10 μM, 30 μM, 100 μM and 300 μM).

[2] = tested on: murine model of collagen-induced arthritis; experiment: Collagen-induced arthritis model (CIA model), study number 2, Example 12; type: in vivo, female DBA/1J mice; conditions: for Terminal Individual Paw Score, Front left, group mean / Terminal Individual Paw Score, Front right, group mean / Terminal Individual Paw Score, Rear left, group mean / Terminal Individual Paw Score, Rear right, group mean: day 42; for effect on diseased mouse weight / incidence of disease / reduction in disease severity: once daily subcutaneous 4 μg/mouse; for incidence of disease: starting one hour prior to disease induction; for reduction in disease severity: at the termination of the study; for Arthritic Index (AI), group mean: peptides 4 μg/mouse, methotrexate 1 mg/kg, subcutaneous
Description: The CIA model as described in an Example 9 is the “standard” animal model for evaluation of anti-arthritic activity based on immunization with bovine collagen to develop antibodies against bone and cartilage.
Here we present data on investigating in vivo effect of the HERV-Env59, SG#2, and SG#5 and SG#15 peptides. The aim was to determine anti-arthritic dosing paradigm in a murine model of collagen-induced arthritis. This study was carried out in female DBA/1J mice. The effect of the Env59 ISU peptide, SG#2, SG#5 or SG#15 peptide on disease development is compared with a methotrexate MTX (positive control) or saline treated control group.
Day 0: The mice were weighted and injected subcutaneously at the nape of the neck as in the table below (table 6):
An hour later, the mice were injected subcutaneously at the base of the tail with 50 μl of the collagen/CFA emulsion.
Mice were scored for signs of arthritis every Monday, Wednesday, and Friday during the next 41 days as follows: • Each paw receives a score • 0=no visible effects of arthritis • 1=edema and/or erythema of 1 digit • 2=edema and/or erythema of 2 digits • 3=edema and/or erythema of more than 2 digits • 4=severe arthritis of entire paw and digits
The Arthritic Index (AI) was calculated by the addition of individual paw scores.
Day 42 The mice were weighted and scored for signs of arthritis.

| Sequence | Toxicity yes/no at the 300 μM conc. [1] | Terminal Individual Paw Score, Front left, group mean [2] | Terminal Individual Paw Score, Front right, group mean [2] | Terminal Individual Paw Score, Rear left, group mean [2] | Terminal Individual Paw Score, Rear right, group mean [2] | effect on diseased mouse weight [2] | incidence of disease [2] | reduction in disease severity [2] | Arthritic Index (AI), group mean ([2]; study day 14) | Arthritic Index (AI), group mean ([2]; study day 21) | Arthritic Index (AI), group mean ([2]; study day 25) | Arthritic Index (AI), group mean ([2]; study day 27) | Arthritic Index (AI), group mean ([2]; study day 29) | Arthritic Index (AI), group mean ([2]; study day 32) | Arthritic Index (AI), group mean ([2]; study day 34) | Arthritic Index (AI), group mean ([2]; study day 36) | Arthritic Index (AI), group mean ([2]; study day 39) | Arthritic Index (AI), group mean ([2]; study day 41) | Arthritic Index (AI), group mean ([2]; study day 42) |
| --- | --- | --- | --- | --- | --- | --- | --- | --- | --- | --- | --- | --- | --- | --- | --- | --- | --- | --- | --- |
| GLSILLNEECGPGPGP (Possibly HERV) [SG#5] | No | 1.3 | 1.1 | 0.3 | 1.0 | no effect | 80% | 70% | 0 | 0 | 0 | 0.0 | 0.9 | 1.1 | 1.3 | 2.1 | 3.3 | 3.5 | 3.6 |
| LQNRRGLGLSILLNEECEEGPGPGP (Possibly HERV) [SG#2] | No | 0.4 | 0.4 | 0.1 | 0.5 | no effect | 30% | 90% | 0 | 0 | 0 | 0.4 | 0.4 | 0.9 | 0.9 | 0.9 | 0.9 | 1.0 | 1.4 |
| LQNRRGLLQNRRGLGLSILLNEE (Possibly HERV) [SG#15] | No | 0.1 | 0 | 0.3 | 0 | no effect | 30% | 97% | 0 | 0 | 0 | 0.1 | 0.1 | 0.1 | 0.3 | 0.3 | 0.3 | 0.3 | 0.4 |
